Like-named read-outs stand apart in the source and are kept apart here.
Legend:
[1] = system: rats trained to self-administer a 10% (w/v) ethanol solution; assay: Operant oral ethanol self-administration; format: in vivo, rat; conditions: for ED50: Rattus norvegicus, po, read-out: ED50 for ethanol self-administration; for Overall effect on operant self-administration of 10% ethanol: ANOVA, treatment 30 min prior to testing
Protocol: (§1) Ethanol or saccharin (SACC) self-administration training was conducted in standard operant cages (Coulbourn Instruments, PA) located in sound-attenuated, ventilated cubicles. Two 35-ml syringes dispensed either ethanol/SACC or water through plastic tubing into two stainless steel drinking cups mounted 4 cm above the grid floor and centered on the front panel of each chamber. Each drinking cup held 2 reinforcer deliveries (0.1 ml fluid/reinforcer). Two retractable levers were located 4.5 cm to either side of the drinking cups. Fluid delivery and recording of operant responses were controlled by a microcomputer. Briefly, animals were trained to voluntarily self-administer 10% (w/v) ethanol (n=10) or saccharin (n=6) by the oral route using the saccharin fadeout method^39 and were tested for their response for ethanol or saccharin solution in a two-lever free choice situation. Once baseline ethanol and saccharin intake were achieved (i.e., when responding across 3 consecutive days varied less than 20% and response rates correspond to pharmacologically relevant blood alcohol levels (BALs)), dose response testing for each compound commenced. To allow for a complete dissipation of any carry-over effects, a one week washout period, where rats were re-baselined during daily 30 min operant sessions, occurred between testing of each compound.
(§2) Data were collected on-line simultaneously from multiple operant chambers. Results of the operant procedure are reported as mean cumulative number of bar presses for ethanol or saccharin. In general, tests for homogeneity of variance were first performed on the data. […] Data were analyzed using the StatView statistical package on a PC-compatible computer. Mixed-design ANOVAs were used with drug treatments as a within-subjects factor (i.e., repeated measures design for drug treatment). A priori analysis examining individual drug doses to vehicle control dose was conducted using paired t-tests. Significant drug effects were defined as having p<0.05 compared to vehicle-treated rats.

[2] = system: rats self-administering 0.5 mg/kg/injection of cocaine; assay: Cocaine self-administration, short (ShA) and long access (LgA)
μ-opioid receptor [3] = target: T1, μ-opioid receptor (Mus musculus, UniProt P42866); assay: biochemical; parameters: species or system human; conditions: read-out: Emax, μ, stimulation of [35S]GTPγS binding
T1 construct: FLAG; expressed in transfected cells

κ-opioid receptor = target: T2, κ-opioid receptor (Mus musculus, UniProt P33534); assay: biochemical; parameters: species or system human; conditions: read-out: Emax, κ, stimulation of [35S]GTPγS binding
T2 construct: FLAG; expressed in transfected cells

[4] = system: rats trained to orally self-administer a 0.025% saccharin solution; assay: Operant oral saccharin self-administration (control); format: in vivo, rat; conditions: for Overall effect on operant self-administration of saccharin vs vehicle: ANOVA
Protocol: as §1, §2

[5] = target: NOP (nociceptin) receptor (Homo sapiens, UniProt P41146)
[6] = Metabolic stability, human liver S-9; conditions: for Half Life, Human liver preparation: 40 μM test compound, NADPH-generating system, NC = No Change; for half-life at 40 μM: human, s9, pH 7.4
Protocol: (§3) A typical assay mixture contained rat or mouse liver microsomes or human liver S-9 (0.4-0.5 mg of protein), 100 μM potassium phosphate buffer (pH 7.4), 40 μM test compound, an NADPH-generating system consisting of 0.5 mM NADP^+, 0.5 mM glucose-6-phosphate, 5 IU/mL glucose-6-phosphate dehydrogenase, 1 mg/mL DETAPAC and 7 mM MgCl2 for a final incubation volume of 0.1 mL^23. […] After centrifugation at 13,000 rpm for 5 min, the organic fraction was collected and the solvent was removed with a stream of argon. The residue was reconstituted in methanol (200 L), centrifuged at 13,000 rpm for 5 min and the supernatant was analyzed by high-performance liquid chromatography with an Axxi-chrom (straight-phase) silica column (4.6 mm×250 mm, 5 m) or with a Supelco (reverse-phase) HS F5 pentafluorophenyl column (4.6 mm×250 mm, 5 m) as described above.

[7] = Metabolic stability, mouse liver microsomes; conditions: for Half Life, Mouse liver preparation: 40 μM test compound, NADPH-generating system, NC = No Change; for half-life at 40 μM: mouse, microsomes, pH 7.4
Protocol: as §3

Solubility in H2O = conditions: for Solubility in H2O: salt as labelled; for solubility: water
μ-opioid receptor [8] = target: T1, μ-opioid receptor; assay: biochemical; format: biochemical, human; conditions: read-out: Emax, μ, inhibition of basal [35S]GTPγS binding
δ-opioid receptor = target: T3, δ-opioid receptor (Mus musculus, UniProt P32300); assay: biochemical; parameters: species or system human; conditions: read-out: Emax, δ, stimulation of [35S]GTPγS binding
T3 construct: hemagglutinin (HA); expressed in transfected cells

[9] = doses of 0.0125, 0.025 and 0.05 mg/kg

NOP (nociceptin) receptor, sequence (P41146 whole entry): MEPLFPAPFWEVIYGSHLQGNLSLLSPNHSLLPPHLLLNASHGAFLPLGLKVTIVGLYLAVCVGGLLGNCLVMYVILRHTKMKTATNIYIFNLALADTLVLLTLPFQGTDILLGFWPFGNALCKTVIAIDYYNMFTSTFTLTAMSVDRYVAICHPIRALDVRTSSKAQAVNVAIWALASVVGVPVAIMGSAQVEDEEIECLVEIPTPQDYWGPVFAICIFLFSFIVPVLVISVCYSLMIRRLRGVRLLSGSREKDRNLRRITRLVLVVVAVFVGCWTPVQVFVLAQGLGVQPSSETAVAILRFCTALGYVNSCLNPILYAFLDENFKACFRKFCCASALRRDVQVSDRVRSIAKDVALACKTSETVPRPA
T1 sequence (P42866 whole entry): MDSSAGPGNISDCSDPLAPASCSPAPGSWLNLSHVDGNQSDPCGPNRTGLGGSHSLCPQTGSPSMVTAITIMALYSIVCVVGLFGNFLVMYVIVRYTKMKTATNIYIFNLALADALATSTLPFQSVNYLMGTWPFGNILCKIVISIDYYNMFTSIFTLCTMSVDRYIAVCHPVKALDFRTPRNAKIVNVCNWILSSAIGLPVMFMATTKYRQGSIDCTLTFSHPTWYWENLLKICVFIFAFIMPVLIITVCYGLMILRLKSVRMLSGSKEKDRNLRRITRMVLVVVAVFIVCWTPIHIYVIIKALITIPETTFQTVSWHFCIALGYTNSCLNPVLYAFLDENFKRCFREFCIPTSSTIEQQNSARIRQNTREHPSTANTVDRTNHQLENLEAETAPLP
T2 sequence (P33534 whole entry): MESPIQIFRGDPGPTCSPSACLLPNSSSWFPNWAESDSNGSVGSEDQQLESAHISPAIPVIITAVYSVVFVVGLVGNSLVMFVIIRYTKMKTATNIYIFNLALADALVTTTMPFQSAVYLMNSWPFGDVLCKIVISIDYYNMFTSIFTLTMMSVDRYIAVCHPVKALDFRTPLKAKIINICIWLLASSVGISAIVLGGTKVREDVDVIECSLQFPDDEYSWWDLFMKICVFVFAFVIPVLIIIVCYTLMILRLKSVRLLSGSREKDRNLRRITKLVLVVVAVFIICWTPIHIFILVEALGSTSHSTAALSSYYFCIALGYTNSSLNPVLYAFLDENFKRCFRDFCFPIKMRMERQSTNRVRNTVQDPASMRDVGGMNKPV
T3 sequence (P32300 whole entry): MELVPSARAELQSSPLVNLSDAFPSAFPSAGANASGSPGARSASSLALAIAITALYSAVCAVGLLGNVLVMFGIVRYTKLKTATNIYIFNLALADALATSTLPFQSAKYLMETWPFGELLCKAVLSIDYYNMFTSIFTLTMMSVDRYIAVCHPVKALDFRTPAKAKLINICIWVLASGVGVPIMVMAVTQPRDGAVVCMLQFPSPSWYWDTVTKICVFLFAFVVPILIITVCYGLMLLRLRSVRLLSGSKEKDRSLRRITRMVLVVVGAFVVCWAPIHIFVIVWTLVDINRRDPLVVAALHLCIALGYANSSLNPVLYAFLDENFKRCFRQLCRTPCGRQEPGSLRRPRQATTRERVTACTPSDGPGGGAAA

## O=C1CC[C@@]2(O)[C@H]3Cc4ccc(O)c5c4[C@@]2(CCN3CC2CC2)[C@H]1O5 [Compound 1a, naltrexone, reference compound]
[1]
  ED50: ~0.5 mg/kg
[2]
  Cocaine intake, schedule not stated: decreased cocaine intake in both groups

## O=C(N[C@@H]1CC[C@@]2(O)[C@H]3Cc4ccc(O)c5c4[C@@]2(CCN3CC2CC2)[C@H]1O5)c1ccc(C(F)(F)F)cc1 [Compound 5, 6-β-(4′-Trifluoromethyl)benzamido-14-hydroxy-17-(cyclopropylmethyl)nordesmorphine]
μ-opioid receptor [3]
  Emax: 28 to 63%
κ-opioid receptor
  Emax: 28 to 63%
[1]
  Overall effect on operant self-administration of 10% ethanol: had an overall effect
[1]; [9]
  Post hoc analysis vs vehicle, operant self-administration of 10% ethanol: significantly inhibited
[4]
  Overall effect on operant self-administration of saccharin vs vehicle: did have an overall effect
[4]; […] for 5, 0.05 mg/kg for 6, the only such doses
  Post-hoc analysis vs vehicle, self-administration of saccharin: significantly inhibited
other
  melting point: 157.5 °C
[5]
  Emax: 0%
[6]
  Half Life, Human liver preparation: remained unchanged
[7]
  Half Life, Mouse liver preparation: remained unchanged

## CC(C)(C)c1ccc(C(=O)N[C@@H]2CC[C@@]3(O)[C@H]4Cc5ccc(O)c6c5[C@@]3(CCN4CC3CC3)[C@H]2O6)cc1.O=C(O)C(=O)O [Compound 8-oxalate, 6-β-(4′-t-Butyl)benzamido-14-hydroxy-17-(cyclopropylmethyl)nordesmorphine-oxalate]
Solubility in H2O
  Solubility in H2O: 6000 µg/mL

## C=C1CC[C@@]2(O)[C@H]3Cc4ccc(O)c5c4[C@@]2(CCN3CC2CC2)[C@H]1O5 [Compound 1b, nalmefene, reference compound]
[1]
  Overall effect on operant self-administration of 10% ethanol: had an overall effect
  ED50: ~0.04 mg/kg
[1]; [9]
  Post hoc analysis vs vehicle, operant self-administration of 10% ethanol: significantly inhibited
[4]
  Overall effect on operant self-administration of saccharin vs vehicle: did not have an overall effect
[6]
  half-life at 40 μM: 20 min
[7]
  half-life at 40 μM: 20 min

## CN(C(=O)c1ccc(Br)cc1)[C@@H]1CC[C@@]2(O)[C@H]3Cc4ccc(O)c5c4[C@@]2(CCN3CC2CC2)[C@H]1O5.O=C(O)C(=O)O [14b. Oxalate, 6-β-(4′-Bromo)-N-methylbenzamido-14-hydroxy-17-(cyclopropylmethyl)nordesmorphine Oxalate]
Solubility in H2O
  Solubility in H2O: 20000 µg/mL

## Oc1ccc2c3c1O[C@H]1c4[nH]c5c(c4C[C@@]4(O)[C@@H](C2)N(CC2CC2)CC[C@]314)C[C@@]1(O)[C@H]2Cc3ccc(O)c4c3[C@@]1(CCN2CC1CC1)[C@H]5O4 [Nor-BNI, reference compound]
[2]
  Cocaine self-administration under a PR schedule: decreased cocaine intake in LgA rats

## CN(C(=O)c1ccc(Cl)cc1)[C@@H]1CC[C@@]2(O)[C@H]3Cc4ccc(O)c5c4[C@@]2(CCN3CC2CC2)[C@H]1O5.O=C(O)C(=O)O [17b—Oxalate, 6-β-(4′-Chloro)-N-methylbenzamido-14-hydroxy-17-(cyclopropylmethyl)nordesmorphine oxalate]
Solubility in H2O
  Solubility in H2O: 6000 µg/mL

## CN(C(=O)/C=C/c1ccoc1)[C@@H]1CC[C@@]2(O)[C@H]3Cc4ccc(O)c5c4[C@@]2(CCN3CC2CC2)[C@H]1O5.O=C(O)C(=O)O (relative stereo) [Compound 20b-oxalate, 17-Cyclopropylmethyl-3,14β-dihydroxy-4,5α-epoxy-6β-[N-methyl-trans-3-(3-furyl)acrylamido]morphinan oxalate]
Solubility in H2O
  solubility: 32000 µg/mL

## CN(C(=O)c1ccc(C(F)(F)F)cc1)[C@@H]1CC[C@@]2(O)[C@H]3Cc4ccc(O)c5c4[C@@]2(CCN3CC2CC2)[C@H]1O5.O=C(O)C(=O)O [13b—Oxalate, 6-β-(4′-Trifluoromethyl)-N-methylbenzamido-14-hydroxy-17-(cyclopropylmethyl)nordesmorphine oxalate]
Solubility in H2O
  Solubility in H2O: 4700 µg/mL

## [D-pen2, D-pen5]-enkephalin [Compound 14, reference compound]
[5]
  Emax: 0%

## CN(C(=O)c1ccc(C(C)(C)C)cc1)[C@H]1CC[C@@]2(O)[C@H]3Cc4ccc(O)c5c4[C@@]2(CCN3CC2CC2)[C@H]1O5.O=C(O)C(=O)O [16a—Oxalate, 6-α-(4′-t-Butyl)-N-methylbenzamido-14-hydroxy-17-(cyclopropylmethyl)nordesmorphine oxalate]
Solubility in H2O
  Solubility in H2O: 3300 µg/mL

## CN(C(=O)/C=C/c1ccoc1)[C@H]1CC[C@@]2(O)[C@H]3Cc4ccc(O)c5c4[C@@]2(CCN3CC2CC2)[C@H]1O5.O=C(O)C(=O)O (relative stereo) [20a—Oxalate, 17-Cyclopropylmethyl-3,14β-dihydroxy-4,5α-epoxy-6α-[N-methyl-trans-3-(3-furyl)acrylamido]morphinan oxalate]
Solubility in H2O
  solubility: 16000 µg/mL

## O=C(N[C@@H]1CC[C@@]2(O)[C@H]3Cc4ccc(O)c5c4[C@@]2(CCN3CC2CC2)[C@H]1O5)c1ccc(C(F)(F)F)cc1.O=C(O)C(=O)O [Compound 5-oxalate, 6-β-(4′-Trimethylfluoro)benzamido-14-hydroxy-17-(cyclopropylmethyl)nordesmorphine-oxalate]
Solubility in H2O
  Solubility in H2O: 1000 µg/mL

## O=C(N[C@@H]1CC[C@@]2(O)[C@H]3Cc4ccc(O)c5c4[C@@]2(CCN3CC2CC2)[C@H]1O5)c1ccc(Br)cc1.O=C(O)C(=O)O [Compound 6-oxalate, 6-β-(4′-Bromo)benzamido-14-hydroxy-17-(cyclopropylmethyl) nordesmorphine-oxalate]
Solubility in H2O
  Solubility in H2O: 200 µg/mL
[2]
  Cocaine intake, schedule not stated: decreased cocaine intake in both groups
  Cocaine self-administration under a PR schedule: dose-dependently decreased cocaine self-administration

## CN(C(=O)c1ccc(I)cc1)[C@H]1CC[C@@]2(O)[C@H]3Cc4ccc(O)c5c4[C@@]2(CCN3CC2CC2)[C@H]1O5.O=C(O)C(=O)O [15a—Oxalate, 6-α-(4′-Iodo)-N-methylbenzamido-14-hydroxy-17-(cyclopropylmethyl)nordesmorphine oxalate]
Solubility in H2O
  Solubility in H2O: 5000 µg/mL

## CN(C(=O)c1ccc(Cl)cc1)[C@H]1CC[C@@]2(O)[C@H]3Cc4ccc(O)c5c4[C@@]2(CCN3CC2CC2)[C@H]1O5.O=C(O)C(=O)O [17a—Oxalate, 6-α-(4′-Chloro)-N-methylbenzamido-14-hydroxy-17-(cyclopropylmethyl)nordesmorphine oxalate]
Solubility in H2O
  Solubility in H2O: 10000 µg/mL

## Cc1ccc(C(=O)N[C@@H]2CC[C@@]3(O)[C@H]4Cc5ccc(O)c6c5[C@@]3(CCN4CC3CC3)[C@H]2O6)cc1 [Compound 4, 6-β-(4′-Methyl)benzamido-14-hydroxy-17-(cyclopropylmethyl) nordesmorphine]
μ-opioid receptor [8]
  Emax: 3 ± 2.4%
other
  melting point: 207.6 °C
[5]
  Emax: 0%
[6]
  Half Life, Human liver preparation: remained unchanged
[7]
  Half Life, Mouse liver preparation: remained unchanged

## O=C(N[C@@H]1CC[C@@]2(O)[C@H]3Cc4ccc(O)c5c4[C@@]2(CCN3CC2CC2)[C@H]1O5)c1ccc(I)cc1 [Compound 7, 6-β-(4′-Iodo)benzamido-14-hydroxy-17-(cyclopropylmethyl)nordesmorphine]
μ-opioid receptor [3]
  Emax: 28 to 63%
δ-opioid receptor
  Emax: 28 to 63%
[1]
  Overall effect on operant self-administration of 10% ethanol: had an overall effect
[1]; only a dose of 0.05 mg/kg
  Post hoc analysis vs vehicle, operant self-administration of 10% ethanol: significantly inhibited
[4]
  Overall effect on operant self-administration of saccharin vs vehicle: did have an overall effect
[5]
  Emax: 0%

## CN(C(=O)c1ccc(Cl)c(Cl)c1)[C@H]1CC[C@@]2(O)[C@H]3Cc4ccc(O)c5c4[C@@]2(CCN3CC2CC2)[C@H]1O5.O=C(O)C(=O)O [18a—Oxalate, 6-α-(3′,4′-Dichloro)-N-methylbenzamido-14-hydroxy-17-(cyclopropylmethyl)nordesmorphine oxalate]
Solubility in H2O
  Solubility in H2O: 6700 µg/mL

## CC(C)(C)c1ccc(C(=O)N[C@@H]2CC[C@@]3(O)[C@H]4Cc5ccc(O)c6c5[C@@]3(CCN4CC3CC3)[C@H]2O6)cc1 [Compound 8, 6-(4′-t-Butyl)benzamido-14-hydroxy-17-(cyclopropylmethyl)nordesmorphine]
[1]
  Overall effect on operant self-administration of 10% ethanol: had an overall effect
[1]; only a dose of 0.05 mg/kg
  Post hoc analysis vs vehicle, operant self-administration of 10% ethanol: significantly inhibited
[4]
  Overall effect on operant self-administration of saccharin vs vehicle: did not have an overall effect
other
  melting point: 151.1 °C
[5]
  Emax: 0%
[6]
  half-life at 40 μM: > 112 min
[7]
  half-life at 40 μM: > 112 min

— US8778958B2, “Synthesis of metabolically stable agents for alcohol and drug abuse” (priority 2008, dated 2014)
